Results: patent US9567302B2, “Carbamate compounds and of making and using same” (Abide Therapeutics, Inc., priority 2012, dated 2017)

Columns and labels:
Type in all cases: biochemical
Design in all cases: from tissue; host or cells: mouse brain membrane fraction
Conditions in all cases: Table 2, mouse proteome, 30 min preincubation at 37° C.
[1] = biological target: T1, MAGL (Mus musculus, UniProt O35678); test: In vitro competitive activity-based protein profiling (FP-Rh), mouse MAGL
T1 sequence (O35678 1-303): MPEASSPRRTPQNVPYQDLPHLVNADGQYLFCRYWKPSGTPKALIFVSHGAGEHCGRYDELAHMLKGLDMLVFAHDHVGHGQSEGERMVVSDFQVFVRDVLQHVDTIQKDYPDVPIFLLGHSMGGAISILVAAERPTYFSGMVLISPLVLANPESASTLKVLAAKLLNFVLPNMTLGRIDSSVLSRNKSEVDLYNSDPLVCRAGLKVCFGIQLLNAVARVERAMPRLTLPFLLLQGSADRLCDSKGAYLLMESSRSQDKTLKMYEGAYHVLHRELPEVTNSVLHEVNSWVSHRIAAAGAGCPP
Method: (§1) In Vitro Competitive Activity-Based Protein Profiling.
(§2) Proteomes (mouse brain membrane fraction or cell lysates) (50 μL, 1.0 mg/ml total protein concentration) were preincubated with varying concentrations of inhibitors at 37° C. After 30 min, FP-Rh (1.0 μL, 50 μM in DMSO) was added and the mixture was incubated for another 30 min at 37° C. Reactions were quenched with SDS loading buffer (50 μL—4×) and run on SDS-PAGE.

[2] = biological target: T2, FAAH (Mus musculus, UniProt O08914); test: In vitro competitive activity-based protein profiling (FP-Rh), mouse FAAH
T2 sequence (O08914 1-579): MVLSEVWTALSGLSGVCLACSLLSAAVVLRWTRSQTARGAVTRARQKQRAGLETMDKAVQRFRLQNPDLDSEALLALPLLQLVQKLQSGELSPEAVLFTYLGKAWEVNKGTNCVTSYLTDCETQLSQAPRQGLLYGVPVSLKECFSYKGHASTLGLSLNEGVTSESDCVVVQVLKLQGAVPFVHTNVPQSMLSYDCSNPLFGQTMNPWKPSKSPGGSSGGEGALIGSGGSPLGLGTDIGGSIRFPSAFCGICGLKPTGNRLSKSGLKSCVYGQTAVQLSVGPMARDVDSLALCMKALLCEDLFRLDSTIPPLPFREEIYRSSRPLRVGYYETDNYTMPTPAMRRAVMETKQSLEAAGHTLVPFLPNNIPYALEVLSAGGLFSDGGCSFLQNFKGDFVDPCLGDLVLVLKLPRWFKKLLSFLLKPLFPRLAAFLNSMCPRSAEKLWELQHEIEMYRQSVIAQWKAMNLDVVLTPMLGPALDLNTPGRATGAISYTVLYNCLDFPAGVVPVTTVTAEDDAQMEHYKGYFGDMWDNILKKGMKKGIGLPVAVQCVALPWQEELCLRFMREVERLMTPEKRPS
Method: as §1, §2

[3] = biological target: T3, ABHD6 (Mus musculus, UniProt Q8R2Y0); test: In vitro competitive activity-based protein profiling (FP-Rh), mouse ABHD6
T3 sequence (Q8R2Y0 1-336): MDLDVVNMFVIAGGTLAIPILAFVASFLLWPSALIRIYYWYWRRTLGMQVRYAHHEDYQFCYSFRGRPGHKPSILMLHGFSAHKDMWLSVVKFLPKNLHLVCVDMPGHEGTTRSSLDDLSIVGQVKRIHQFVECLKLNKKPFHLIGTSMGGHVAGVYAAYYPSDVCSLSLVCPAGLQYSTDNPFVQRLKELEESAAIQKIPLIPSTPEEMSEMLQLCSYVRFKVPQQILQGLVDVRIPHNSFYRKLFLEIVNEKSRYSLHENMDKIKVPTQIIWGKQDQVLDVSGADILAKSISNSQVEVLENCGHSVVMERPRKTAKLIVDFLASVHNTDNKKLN
Method: as §1, §2

Row | SMILES | IC50 [1] [nM] | IC50 [2] [nM] | IC50 [3] [nM]
1 | O=C(ON1C(=O)CCC1=O)N1CCN(Cc2ccc(-n3cccn3)c(F)c2)CC1 [Example 108, 2,5-Dioxopyrrolidin-1-yl 4-(3-fluoro-4-(1H-pyrazol-1-yl)benzyl)piperazine-1-carboxylate] | 1000 to 10000 | > 10000 | 1000 to 10000
2 | COC(=O)c1cc(CN2CCN(C(=O)ON3C(=O)CCC3=O)CC2)ccc1N1CCOCC1 [Example 118, 2,5-Dioxopyrrolidin-1-yl 4-(3-(methoxycarbonyl)-4-morpholinobenzyl)piperazine-1-carboxylate] | 1000 to 10000 | > 10000 | 1000 to 10000
3 | O=C1COc2ccc(CN3CCN(C(=O)ON4C(=O)CCC4=O)CC3)cc2N1 [Example 134, 2,5-Dioxopyrrolidin-1-yl 4-((3-oxo-3,4-dihydro-2H-benzo[b][1,4]oxazin-6-yl)methyl)piperazine-1-carboxylate] | 1000 to 10000 | > 10000 | 1000 to 10000
4 | Cc1nn(-c2ccccc2)cc1CN1CCN(C(=O)ON2C(=O)CCC2=O)CC1 [Example 138, 2,5-Dioxopyrrolidin-1-yl 4-((3-methyl-1-phenyl-1H-pyrazol-4-yl)methyl)piperazine-1-carboxylate] | 1000 to 10000 | 1000 to 10000 | 100 to 1000
5 | Cc1nc(-c2ccccc2)oc1CN1CCN(C(=O)ON2C(=O)CCC2=O)CC1 [Example 143, 2,5-Dioxopyrrolidin-1-yl 4-((4-methyl-2-phenyloxazol-5-yl)methyl)piperazine-1-carboxylate] | 100 to 1000 | > 10000 | 1000 to 10000
6 | Cc1nc2ccc(Cl)cn2c1CN1CCN(C(=O)ON2C(=O)CCC2=O)CC1 [Example 144] | 1000 to 10000 | > 10000 | 100 to 1000
7 | O=C(ON1C(=O)CCC1=O)N1CCN(Cc2cnc3ccc(Cl)cn23)CC1 [Example 145, 2,5-Dioxopyrrolidin-1-yl 4-((6-chloroimidazo[1,2-a]pyridin-3-yl)methyl)piperazine-1-carboxylate] | 1000 to 10000 | > 10000 | 1000 to 10000
8 | Cc1nc(N2CCCCC2)sc1CN1CCN(C(=O)ON2C(=O)CCC2=O)CC1 [Example 148, 2,5-Dioxopyrrolidin-1-yl 4-((4-methyl-2-(piperidin-1-yl)thiazol-5-yl)methyl)piperazine-1-carboxylate] | 1000 to 10000 | > 10000 | 1000 to 10000
9 | Cn1cc(CN2CCN(C(=O)ON3C(=O)CCC3=O)CC2)c(-c2ccccc2)n1 [Example 149, 2,5-Dioxopyrrolidin-1-yl 4-((1-methyl-3-phenyl-1H-pyrazol-4-yl)methyl)piperazine-1-carboxylate] | 1000 to 10000 | > 10000 | 1000 to 10000
10 | O=C(ON1C(=O)CCC1=O)N1CCN(C(c2cocn2)c2cocn2)CC1 [Example 152, 2,5-Dioxopyrrolidin-1-yl 4-(bis(oxazol-4-yl)methyl)piperazine-1-carboxylate] | 1000 to 10000 | 1000 to 10000 | 1000 to 10000
11 | Cc1cc(Cl)ccc1C(c1ccc(Cl)cc1C)N1CCN(C(=O)ON2C(=O)CCC2=O)CC1 [Example 153, 2,5-Dioxopyrrolidin-1-yl 4-(bis(4-chloro-2-methylphenyl)methyl)piperazine-1-carboxylate] | 100 to 1000 | > 10000 | 1000 to 10000
12 | Cc1cc(-c2ccccc2)ccc1CN1CCN(C(=O)ON2C(=O)CCC2=O)CC1 [Example 165, 2,5-Dioxopyrrolidin-1-yl 4-[(2-methyl-4-phenylphenyl)methyl]piperazine-1-carboxylate] | 100 to 1000 | 1000 to 10000 | 100 to 1000
13 | CC(C)c1cc(-c2ccccc2)ccc1CN1CCN(C(=O)ON2C(=O)CCC2=O)CC1 [Example 188, 2,5-Dioxopyrrolidin-1-yl 4-{[4-phenyl-2-(propan-2-yl)phenyl]methyl}piperazine-1-carboxylate] | 100 to 1000 | > 10000 | 1000 to 10000

Next, values leading:

Row | IC50 [1] [nM] | IC50 [2] [nM] | IC50 [3] [nM] | SMILES
14 | < 100 | > 10000 | 1000 to 10000 | O=C(ON1C(=O)CCC1=O)N1CCN(Cc2ccc(Cl)cc2N2CCC3(CCOCC3)C2)CC1 [Example 109, 2,5-Dioxopyrrolidin-1-yl 4-[(4-chloro-2-{8-oxa-2-azaspiro[4.5]decan-2-yl}phenyl)methyl]piperazine-1-carboxylate]
15 | < 100 | > 10000 | 100 to 1000 | O=C(ON1C(=O)CCC1=O)N1CCN(Cc2ccc(Cl)cc2N2Cc3cccnc3C2)CC1 [Example 114, 2,5-Dioxopyrrolidin-1-yl 4-[(4-chloro-2-{5H,6H,7H-pyrrolo[3,4-b]pyridin-6-yl}phenyl)methyl]piperazine-1-carboxylate]
16 | 100 to 1000 | > 10000 | 1000 to 10000 | CC(=O)N1CCN(c2cc(Cl)ccc2CN2CCN(C(=O)ON3C(=O)CCC3=O)CC2)CC1 [Example 115, 2,5-Dioxopyrrolidin-1-yl 4-{[2-(4-acetylpiperazin-1-yl)-4-chlorophenyl]methyl}piperazine-1-carboxylate]
17 | < 100 | > 10000 | 100 to 1000 | Cc1c(CN2CCN(C(=O)ON3C(=O)CCC3=O)CC2)cccc1N1CCOCC1 [Example 121, 2,5-Dioxopyrrolidin-1-yl 4-(2-methyl-3-morpholinobenzyl)piperazine-1-carboxylate]
18 | < 100 | > 10000 | 100 to 1000 | Cc1c(CN2CCN(C(=O)ON3C(=O)CCC3=O)CC2)cccc1N1CCCC1 [Example 123, 2,5-Dioxopyrrolidin-1-yl 4-(2-methyl-3-(pyrrolidin-1-yl)benzyl)piperazine-1-carboxylate]
19 | < 100 | > 10000 | 100 to 1000 | O=C(ON1C(=O)CCC1=O)N1CCN(Cc2ccc(F)c(N3CCCC3)c2)CC1 [Example 124, 2,5-Dioxopyrrolidin-1-yl 4-(4-fluoro-3-(pyrrolidin-1-yl)benzyl)piperazine-1-carboxylate]
20 | < 100 | > 10000 | 100 to 1000 | O=C(ON1C(=O)CCC1=O)N1CCN(Cc2ccc(Cl)cc2N2CCCCC2)CC1 [Example 129, 2,5-Dioxopyrrolidin-1-yl 4-(4-chloro-2-(piperidin-1-yl)benzyl)piperazine-1-carboxylate]
21 | < 100 | > 10000 | 1000 to 10000 | O=C(ON1C(=O)CCC1=O)N1CCN(Cc2ccc(Cl)cc2N2CC3CCC(C2)O3)CC1 [Example 130, 2,5-Dioxopyrrolidin-1-yl 4-(2-(8-oxa-3-azabicyclo[3.2.1]octan-3-yl)-4-chlorobenzyl)piperazine-1-carboxylate]
22 | < 100 | > 10000 | 1000 to 10000 | O=C(ON1C(=O)CCC1=O)N1CCN(Cc2ccc(Cl)cc2N2CCOC3CCCC32)CC1 (stereo not drawn) [Example 131, 2,5-Dioxopyrrolidin-1-yl 4-(4-chloro-2-(hexahydrocyclopenta[b][1,4]oxazin-4(4aH)-yl)benzyl)piperazine-1-carboxylate]
23 | < 100 | > 10000 | 100 to 1000 | O=C(ON1C(=O)CCC1=O)N1CCN(Cc2cc(Cl)cc(N3CCCCC3)c2)CC1 [Example 132, 2,5-Dioxopyrrolidin-1-yl 4-(3-chloro-5-(piperidin-1-yl)benzyl)piperazine-1-carboxylate]
24 | < 100 | > 10000 | < 100 | O=C(ON1C(=O)CCC1=O)N1CCN(Cc2cccc(N3CCCCC3)c2)CC1 [Example 133, 2,5-Dioxopyrrolidin-1-yl 4-(3-(piperidin-1-yl)benzyl)piperazine-1-carboxylate]
25 | 100 to 1000 | > 10000 | 100 to 1000 | Cn1nc(-c2ccccc2)cc1CN1CCN(C(=O)ON2C(=O)CCC2=O)CC1 [Example 139, 2,5-dioxopyrrolidin-1-yl 4-((1-methyl-3-phenyl-1H-pyrazol-5-yl)methyl)piperazine-1-carboxylate]
